Data set [1] is described as follows: Six-week double-blind clinical evaluation for the treatment of red and brown pigmented skin. Type of data set: in vivo, human. Particulars: 0.5% in vehicle, twice a day to facial area for 6 weeks; expert grading of Canfield VISIA-CR RBX images; women ages 40-70. Here is the method:
A six-week double-blind clinical evaluation was performed, comparing a control vehicle to idebenone dipalmitoyl glycerate for the treatment of red and brown pigmented skin. Approximately 36 women, ages 40-70 with moderate hyperpigmentation and reddening of the skin were selected to participate in the study. Subjects were randomly assigned to one of three groups. Group I received a product with no idebenone active ingredient (vehicle), Group II received the same vehicle with 0.5% Idebenone (Hydroxydecyl Ubiquinone) added, and Group III received the same vehicle with 0.5% of Idebenone Dipalmitoyl Glycerate added. Subjects were instructed to apply the product twice a day (morning and evening) to the facial area for 6 weeks. Canfield VISIA-CR RBX images were made at baseline and after 6 weeks use and analyzed. Digital and UV photographs were also taken, standardizing distance and positioning of the subjects, pre and post product application.

Data set [2] can be described thus: Maximization Test (repeat insult patch test) for contact-sensitizing potential. Type of data set: in vivo, human. Particulars: Vehicle+1% test substance, occlusive patch, 5 induction exposures with SLS pre-treatment, single challenge; graded 48 or 72 hours after application of challenge patches; healthy adult volunteers. Here is the method:
A study was performed to evaluate the contact-sensitizing potential of a topical Facial Cream containing idebenone dipalmitoyl glycerate (Vehicle+1% idebenone dipalmitoyl glycerate) using the Maximization Test. The test was a repeat insult patch test wherein the test material was applied under an occlusive dressing to the upper outer arm, volar forearm or back repeatedly to the same site for five 48-hour induction periods, followed 10-14 days later by a single challenge to a naive skin site. The test sample was coded Cream A and tested as supplied viz. neat. All test materials were stored under ambient conditions in an inaccessible location under the supervision of the investigator.
The test subjects were all healthy, adult volunteers over the age of 18 years. […]

For the compound “3-oxo-3-(9-(2,4,5-trimethyl-3,6-dioxocyclohexa-1,4-dienyl)monyloxy)propane-1,2-diyl dipalmitate [idebenone dipalmitoyl glycerate]”, in data set [1], the “subjects responded with a decrease in brown pigmentation” value is listed as 75% and the “subjects responded with less redness” value is 58%. Regarding `COC1=C(OC)C(=O)C(CCCCCCCCCCOP(=O)(O)O)=C(C)C1=O` [idebenone phosphate ester], the “subjects with contact allergy / positive reaction (recordable level of skin sensitization) after challenge” value in data set [2] was “Four subjects exhibited positive reactions”. Take `COC1=C(OC)C(=O)C(CCCCCCCCCCO)=C(C)C1=O` [idebenone, 6-(10-hydroxydecyl)-2,3-dimethoxy-5-methyl-1,4-benzoquinone]: in data set [1], the “subjects responded with a decrease in brown pigmentation” value is 67% and the “subjects responded with less redness” value was found to be 58%.

For the origin of these results see patent US9290436B2, “Compositions containing carboxylic acid-substituted derivatives” (Elizabeth Arden, Inc., priority 2008, dated 2016).
